Non-standard residues stand in square brackets, D forms with d. Residues, ends and D or L forms follow the SMILES beside them. No end group written: not given here. pGlu = O=C1CC[C@@H](C(=O)O)N1
How the values were obtained:
[1] = system: ACE; settings: competitive substrates; cited from earlier work
[2] = molecular target: T1, human urinary ACE (Homo sapiens, UniProt P12821); test: ACE activity assay (inhibition of benzoyl-GlyHisLeu hydrolysis); format: biochemical; settings: substrate approximately 1/2 Km (Example 1 assay), read-out: I50
T1 construct: from tissue; host or cells: human urine
Method: These factors include the source of enzyme, its purity, the substrate used and its concentration, and the composition of the assay buffer.
ACE activity assay. […] To initiate the assay, 40 μl of enzyme and 10 μl of water or inhibitor dissolved in water were preincubated for five minutes at 37° C. […] To terminate the reaction, 1 ml of 0.1 M HCl was added, following which 1 ml of ethyl acetate was added. The mixture was agitated on a rotary mixer and centrifuged briefly to separate the phases.
For determination of I50 values, enzyme activity in the presence of inhibitor at a series of different concentrations was compared to activity in the absence of inhibitor.

T1 sequence (P12821 30-1232 limits assumed): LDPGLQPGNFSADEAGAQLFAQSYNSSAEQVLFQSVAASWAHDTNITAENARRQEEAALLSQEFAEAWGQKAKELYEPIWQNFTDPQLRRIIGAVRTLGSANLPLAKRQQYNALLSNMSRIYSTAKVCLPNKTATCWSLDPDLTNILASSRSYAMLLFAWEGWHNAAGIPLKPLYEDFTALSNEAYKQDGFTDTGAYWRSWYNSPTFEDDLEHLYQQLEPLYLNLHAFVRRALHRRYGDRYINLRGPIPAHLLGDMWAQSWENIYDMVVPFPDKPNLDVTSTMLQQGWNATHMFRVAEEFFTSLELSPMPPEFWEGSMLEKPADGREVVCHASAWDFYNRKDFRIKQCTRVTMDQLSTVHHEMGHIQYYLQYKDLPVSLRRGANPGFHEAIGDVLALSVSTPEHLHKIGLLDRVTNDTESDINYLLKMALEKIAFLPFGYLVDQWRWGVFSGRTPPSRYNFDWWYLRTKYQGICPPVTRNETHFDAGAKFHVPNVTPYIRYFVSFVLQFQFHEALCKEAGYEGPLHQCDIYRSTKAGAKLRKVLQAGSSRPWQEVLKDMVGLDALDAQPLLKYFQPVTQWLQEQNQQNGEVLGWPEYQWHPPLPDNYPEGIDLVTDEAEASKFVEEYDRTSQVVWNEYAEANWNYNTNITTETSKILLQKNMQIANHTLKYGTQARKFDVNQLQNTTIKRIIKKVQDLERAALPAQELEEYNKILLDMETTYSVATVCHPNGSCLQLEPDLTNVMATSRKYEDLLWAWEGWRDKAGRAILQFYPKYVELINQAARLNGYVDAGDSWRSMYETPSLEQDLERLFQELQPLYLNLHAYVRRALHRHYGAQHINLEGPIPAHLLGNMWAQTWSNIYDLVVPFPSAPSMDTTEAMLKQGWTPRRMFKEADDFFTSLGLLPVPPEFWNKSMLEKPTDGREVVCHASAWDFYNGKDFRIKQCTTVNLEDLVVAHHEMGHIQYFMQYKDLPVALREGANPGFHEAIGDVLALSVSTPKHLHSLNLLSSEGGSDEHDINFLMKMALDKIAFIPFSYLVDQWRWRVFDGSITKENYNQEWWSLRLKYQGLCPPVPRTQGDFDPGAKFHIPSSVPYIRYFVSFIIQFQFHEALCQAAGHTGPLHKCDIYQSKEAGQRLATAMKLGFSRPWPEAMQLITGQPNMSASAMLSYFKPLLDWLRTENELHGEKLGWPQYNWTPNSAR

C[C@H](NC(=O)[C@H](Cc1c[nH]c2ccccc12)NC(=O)[C@H](CCCCN)NC(=O)[C@@H]1CCC(=O)N1)C(=O)N1CCC[C@H]1C(=O)O [BPP5a] ([pGlu]KWAP-OH)
Km relative to angiotensin I [1]: lower Km than angiotensin I

CC(=O)N[C@@H](Cc1ccccc1)C(=O)SC[C@@H](C)C(=O)N1CCC[C@H]1C(=O)O [N^α -[3-(N^α -acetyl-L-phenylalanylthio)-2-D-methylpropanoyl]-L-proline]
IC50 [2]: 0.026 µM

RPPGFSPFR [bradykinin]
Km relative to angiotensin I [1]: lower Km than angiotensin I

— patent publication US4690939A, “Anti-hypertensive agents” (University of Miami, priority 1979, dated 1987)
